Experiments:
[1] = target: cGMP-specific 3',5'-cyclic phosphodiesterase (Homo sapiens, UniProt O76074); experiment: DRUGMATRIX: Phosphodiesterase PDE5 enzyme inhibition (substrate: [3H]cGMP + cGMP); format: tissue-based; conditions: platelet; Not Active = under 50% inhibition at 10 µM
[2] = DRUGMATRIX: Leukotriene, BLT (LTB4) radioligand binding (ligand: [3H]LTB4); format: cell membranes, Membrane; conditions: u-937; Not Active = under 50% inhibition at 10 µM
[3] = target: T1, Vasoactive intestinal polypeptide receptor 1 (Homo sapiens, UniProt P32241); format: cell membranes, Membrane; conditions: ht-29; note: in other assays of this panel Not Active means under 50% inhibition at 10 µM
T1 sequence (P32241 whole entry): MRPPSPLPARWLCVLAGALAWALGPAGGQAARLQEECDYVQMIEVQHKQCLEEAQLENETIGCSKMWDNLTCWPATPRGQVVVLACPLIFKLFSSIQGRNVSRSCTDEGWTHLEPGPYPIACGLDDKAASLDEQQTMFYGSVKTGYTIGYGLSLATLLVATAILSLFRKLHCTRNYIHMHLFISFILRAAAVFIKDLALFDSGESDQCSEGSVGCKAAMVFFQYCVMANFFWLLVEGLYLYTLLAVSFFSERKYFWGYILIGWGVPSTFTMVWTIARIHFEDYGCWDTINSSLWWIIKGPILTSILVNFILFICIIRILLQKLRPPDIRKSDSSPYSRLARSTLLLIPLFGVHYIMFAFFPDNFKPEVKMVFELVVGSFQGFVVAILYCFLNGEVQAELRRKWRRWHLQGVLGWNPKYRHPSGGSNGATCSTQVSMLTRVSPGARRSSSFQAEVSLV

Mu-type opioid receptor = Mu-type opioid receptor (Homo sapiens, UniProt P35372); experiment: DRUGMATRIX: Opiate mu (OP3, MOP) radioligand binding (ligand: [3H] Diprenorphine); format: cell membranes, CHO-K1, Membrane; conditions: cho-k1; Not Active = under 50% inhibition at 10 µM
Chain of Mu-type opioid receptor (P35372 whole entry): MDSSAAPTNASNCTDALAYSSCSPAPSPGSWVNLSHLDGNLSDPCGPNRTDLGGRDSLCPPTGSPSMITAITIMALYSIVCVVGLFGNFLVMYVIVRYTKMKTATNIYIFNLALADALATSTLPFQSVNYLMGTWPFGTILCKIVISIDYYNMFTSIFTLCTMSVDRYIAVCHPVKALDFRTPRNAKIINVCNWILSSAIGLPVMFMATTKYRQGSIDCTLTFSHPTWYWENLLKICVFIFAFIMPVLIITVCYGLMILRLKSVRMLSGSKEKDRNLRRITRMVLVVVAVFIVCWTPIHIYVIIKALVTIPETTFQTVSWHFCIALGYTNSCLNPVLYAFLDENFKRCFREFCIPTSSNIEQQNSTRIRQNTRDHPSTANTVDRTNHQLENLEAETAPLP

Melanocortin receptor 3 = Melanocortin receptor 3 (Homo sapiens, UniProt P41968); format: cell membranes, Membrane; conditions: hek293; note: in other assays of this panel Not Active means under 50% inhibition at 10 µM
Chain of Melanocortin receptor 3 (P41968 whole entry): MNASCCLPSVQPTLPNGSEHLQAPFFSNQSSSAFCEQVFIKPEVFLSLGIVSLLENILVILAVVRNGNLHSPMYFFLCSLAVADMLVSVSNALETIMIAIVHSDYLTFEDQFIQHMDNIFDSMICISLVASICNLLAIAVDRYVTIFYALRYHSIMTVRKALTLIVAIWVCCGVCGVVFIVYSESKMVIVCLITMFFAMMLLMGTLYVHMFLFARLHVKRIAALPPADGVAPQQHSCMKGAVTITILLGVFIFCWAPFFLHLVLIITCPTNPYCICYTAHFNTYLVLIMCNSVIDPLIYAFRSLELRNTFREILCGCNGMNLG

[4] = target: Sigma non-opioid intracellular receptor 1 (Homo sapiens, UniProt Q99720); experiment: DRUGMATRIX: Sigma1 radioligand binding (ligand: [3H] Haloperidol); format: cell membranes, Jurkat, Membrane; conditions: jurkat; Not Active = under 50% inhibition at 10 µM
Chain of Sigma non-opioid intracellular receptor 1 (Q99720 whole entry): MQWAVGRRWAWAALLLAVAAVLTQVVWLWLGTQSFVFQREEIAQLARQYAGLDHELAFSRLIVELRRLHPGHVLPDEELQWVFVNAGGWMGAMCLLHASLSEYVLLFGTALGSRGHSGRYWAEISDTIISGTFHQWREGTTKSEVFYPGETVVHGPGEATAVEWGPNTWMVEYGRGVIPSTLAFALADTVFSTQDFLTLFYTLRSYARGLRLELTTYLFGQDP

Adenosine receptor A1 = target: T2, Adenosine receptor A1 (Homo sapiens, UniProt P30542); format: cell membranes, CHO, Membrane; conditions: cho;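 note: radioligand binding assay at the adenosine A1 receptor, with DPCPX serving as the labelled ligand; in other assays of this panel Not Active means under 50% inhibition at 10 µM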
T2 sequence (P30542 whole entry): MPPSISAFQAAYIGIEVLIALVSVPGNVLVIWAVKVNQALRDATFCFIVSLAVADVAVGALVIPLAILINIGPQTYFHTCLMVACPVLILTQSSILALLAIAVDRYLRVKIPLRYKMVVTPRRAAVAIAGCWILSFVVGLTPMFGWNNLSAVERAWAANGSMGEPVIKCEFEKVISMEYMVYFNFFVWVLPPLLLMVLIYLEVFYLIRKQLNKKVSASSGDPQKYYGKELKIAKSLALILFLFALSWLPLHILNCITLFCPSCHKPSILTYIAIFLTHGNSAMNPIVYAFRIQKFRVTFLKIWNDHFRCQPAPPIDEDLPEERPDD

CC(=O)O[C@]1(C(C)=O)CC[C@H]2[C@@H]3C=C(C)C4=CC(=O)CC[C@]4(C)[C@H]3CC[C@@]21C [MEGESTROL ACETATE]
Not Active: IC50 [1] | IC50 [2] | Ki [2] | IC50 [3] | IC50 (Mu-type opioid receptor) | IC50 (Melanocortin receptor 3) | IC50 [4] | IC50 (Adenosine receptor A1)

COc1ccccc1OCC(O)COC(N)=O (configuration not stated) [METHOCARBAMOL]
Not Active: IC50 [1] | IC50 [2] | Ki [2] | IC50 [3] | IC50 (Mu-type opioid receptor) | IC50 (Melanocortin receptor 3) | IC50 [4] | IC50 (Adenosine receptor A1)

CN(Cc1cnc2nc(N)nc(N)c2n1)c1ccc(C(=O)N[C@@H](CCC(=O)O)C(=O)O)cc1 [METHOTREXATE]
Not Active: IC50 [1] | IC50 [2] | Ki [2] | IC50 [3] | IC50 (Mu-type opioid receptor) | IC50 (Melanocortin receptor 3) | IC50 [4] | IC50 (Adenosine receptor A1)

COC(=O)c1ccccc1O [METHYL SALICYLATE]
Not Active: IC50 [1] | IC50 [2] | Ki [2] | IC50 [3] | IC50 (Mu-type opioid receptor) | IC50 (Melanocortin receptor 3) | IC50 [4] | IC50 (Adenosine receptor A1)

COc1ccc2cc(CCC(C)=O)ccc2c1 [NABUMETONE]
Not Active: IC50 [1] | IC50 [2] | Ki [2] | IC50 [3] | IC50 (Mu-type opioid receptor) | IC50 (Melanocortin receptor 3) | IC50 [4] | IC50 (Adenosine receptor A1)

O=C(O)c1cccnc1 [NIACIN]
Not Active: IC50 [1] | IC50 [2] | Ki [2] | IC50 [3] | IC50 (Mu-type opioid receptor) | IC50 (Melanocortin receptor 3) | IC50 [4] | IC50 (Adenosine receptor A1)

CNC(=C[N+](=O)[O-])NCCSCc1csc(CN(C)C)n1 [NIZATIDINE]
Not Active: IC50 [1] | IC50 [2] | Ki [2] | IC50 [3] | IC50 (Mu-type opioid receptor) | IC50 (Melanocortin receptor 3) | IC50 [4] | IC50 (Adenosine receptor A1)

C[C@]12C/C(=C/O)C(=O)C[C@@H]1CC[C@@H]1[C@@H]2CC[C@@]2(C)[C@H]1CC[C@]2(C)O [OXYMETHOLONE]
Not Active: IC50 [1] | IC50 [2] | Ki [2] | IC50 [3] | IC50 (Mu-type opioid receptor) | IC50 (Melanocortin receptor 3) | IC50 [4] | IC50 (Adenosine receptor A1)

CC(C)(CO)C(O)C(=O)NCCCO (configuration not stated) [PANTHENOL]
Not Active: IC50 [1] | IC50 [2] | Ki [2] | IC50 [3] | IC50 (Mu-type opioid receptor) | IC50 (Melanocortin receptor 3) | IC50 [4] | IC50 (Adenosine receptor A1)

OCCN1CCN(CCCN2c3ccccc3Sc3ccc(Cl)cc32)CC1 [PERPHENAZINE]
Not Active: IC50 [1] | IC50 [2] | Ki [2] | IC50 [3] | IC50 (Mu-type opioid receptor) | IC50 (Melanocortin receptor 3) | IC50 [4] | IC50 (Adenosine receptor A1)

CCCCC1C(=O)N(c2ccccc2)N(c2ccccc2)C1=O [PHENYLBUTAZONE]
Not Active: IC50 [1] | IC50 [2] | Ki [2] | IC50 [3] | IC50 (Mu-type opioid receptor) | IC50 (Melanocortin receptor 3) | IC50 [4] | IC50 (Adenosine receptor A1)

Cc1cccc(Nc2cc(Cl)nc(SCC(=O)O)n2)c1C [PIRINIXIC ACID]
Not Active: IC50 [1] | IC50 [2] | Ki [2] | IC50 [3] | IC50 (Mu-type opioid receptor) | IC50 (Melanocortin receptor 3) | IC50 [4] | IC50 (Adenosine receptor A1)

CC[C@H](C)C(=O)O[C@H]1C[C@H](O)C=C2C=C[C@H](C)[C@H](CC[C@@H](O)C[C@@H](O)CC(=O)O)[C@H]21 [PRAVASTATIN]
Not Active: IC50 [1] | IC50 [2] | Ki [2] | IC50 [3] | IC50 (Mu-type opioid receptor) | IC50 (Melanocortin receptor 3) | IC50 [4] | IC50 (Adenosine receptor A1)

CC(C)(Sc1cc(C(C)(C)C)c(O)c(C(C)(C)C)c1)Sc1cc(C(C)(C)C)c(O)c(C(C)(C)C)c1 [PROBUCOL]
Not Active: IC50 [1] | IC50 [2] | Ki [2] | IC50 [3] | IC50 (Mu-type opioid receptor) | IC50 (Melanocortin receptor 3) | IC50 [4] | IC50 (Adenosine receptor A1)

From ChEMBL document CHEMBL1909046, “DrugMatrix in vitro pharmacology data”
